# Assay results from patent US4925930A, “Synthesis and anti-leukemic activity of alkyl-1-(β-D-ribofuranosyl)[1,2,4]triazole-3-carboximidates” (Nucleic Acid Research Institute, priority 1988, dated 1990).
# Several values for one entry are separate records, joined by “and”; a condition that tells them apart may be missing. Identical values can stand only once. Like-named read-outs stand apart in the source and are kept apart here.
# Experiments:
# visna = assay type: cell-based; settings: cell culture
# [1] = test system: L1210 murine lymphocytic leukemia; assay: In vitro cytotoxicity / growth inhibition of L1210 murine lymphocytic leukemia; assay type: cell-based; settings: for in vitro growth inhibition: L1210, in vitro cell culture; for cytotoxicity for L1210 cells: cells growing in vitro
# adeno type 2 = assay type: cell-based; settings: cell culture
# semliki forest = assay type: cell-based; settings: cell culture
# [2] = test system: WI-L2 human B lymphoblastic leukemia; assay: In vitro growth inhibition of WI-L2; assay type: cell-based; settings: in vitro cell culture
# Description: (§1) Compounds (4)and (5) were also tested in vitro for their capacity to inhibit the growth of L1210 murine lymphocytic leukemia, WI-L2 human B lymphoblastic leukemia, and CCRF-CEM human T lymphoblastic leukemia in vitro.
# [3] = test system: CCRF-CEM human T lymphoblastic leukemia; assay: In vitro growth inhibition of CCRF-CEM; assay type: cell-based; settings: in vitro cell culture
# Description: as §1
# murine leukemia L1210 = assay: in vivo; assay type: in vivo; settings: for Residual Cell Population After Last Treatment: calculated from inoculum response data; for antitumor activity in vivo: summary, as per Examples 6 and 7 (L1210 and Friend leukemia)
# Description: (§2) In Vivo assessments of therapeutic efficacy and host toxicity with murine leukemia L1210 were made as detailed in M. Kuehl; D. I. Brixner; A. D. Broom; T. L. Avery; R. L. Blakley, Cancer Res., 1988, 48, 1481.
# (§3) ^b Treatment responses (6 mice/treatment group) presented as % T/C
# (§4) ^c Calculations of residual leukemic cell populations were made using
# (§5) ^a Except where otherwise indicated, all solutions were delivered ip
# Friend leukemia = settings: for Spleen Weight / tox (in Spleen Weight column): day 1,3,5,7,9,11, ip; for Spleen Weight: control w/tumor 1538 ± 561, wo/tumor 82 ± 11; for Friend leukemia-related splenomegaly diminished: nontoxic dosing
# [4] = in water; for maximum dosage which could be delivered as a single bolus (maximum soluble dosage): 0.01 ml/gram mouse weight
# rhino A = assay type: cell-based; settings: cell culture
# [5] = test system: herpes simplex type 2 viruses; assay type: cell-based; settings: cell culture
# parainfluenza type 3 = assay type: cell-based; settings: cell culture
# viruses = assay: Cell culture antiviral activity (general statement); assay type: cell-based
# influenza A = assay type: cell-based
# in vivo = assay type: in vivo; settings: mouse, in vivo, ip, read-out: maximum non-lethal dosage
# Description: as §2, §3, §4, §5
# HIV = settings: human T lymphocytes; 50 μg/mL; cited from earlier work
# [6] = bid, day 1,3,5,7, 480 mg/kg, ip
# [7] = qd, day 1-7, 480 mg/kg, ip, 480 mg/kg
# [8] = qd, day 1, 480 mg/kg, ip, 480 mg/kg
structure (smiles),measurement,setting,value
"COC(=N)c1ncn([C@@H]2O[C@H](CO)[C@@H](O)[C@H]2O)n1 [Compound (4), Methyl-1-(β-D-ribofuranosyl)[1,2,4]triazole-3-carboximidate]",antiviral activity,visna,inactive
same,in vitro growth inhibition,[1],neither compound demonstrated in vitro growth inhibition
same,cytotoxicity for L1210 cells,[1],neither compound (4) nor compound (5) was cytotoxic
same,antiviral activity,adeno type 2,inactive
same,antiviral activity,semliki forest,inactive
same,in vitro growth inhibition,[2],neither compound demonstrated in vitro growth inhibition
same,in vitro growth inhibition,[3],neither compound demonstrated in vitro growth inhibition
same,Postinoculation Lifespan (% T/C),murine leukemia L1210; [6],162 % T/C
same,Residual Cell Population After Last Treatment,murine leukemia L1210; [6],12 % of control
same,Postinoculation Lifespan (% T/C),"murine leukemia L1210; bid, day 1-7, 480 mg/kg, ip",101 % T/C
same,Postinoculation Lifespan (% T/C),"murine leukemia L1210; bid, day 1, 480 mg/kg, ip",125 % T/C
same,Residual Cell Population After Last Treatment,"murine leukemia L1210; bid, day 1, 480 mg/kg, ip",9 % of control
same,T/C,"murine leukemia L1210; qd day 1, maximum soluble dosage, 480 mg/kg, repeated",≈ 115
same,Postinoculation Lifespan (% T/C),"murine leukemia L1210; qd, day 1,3,5,7, 480 mg/kg, ip",121 % T/C
same,Residual Cell Population After Last Treatment,"murine leukemia L1210; qd, day 1,3,5,7, 480 mg/kg, ip",46 % of control
same,Postinoculation Lifespan (% T/C),"murine leukemia L1210; qd, day 1,4,7, 480 mg/kg, ip",119 % T/C
same,Residual Cell Population After Last Treatment,"murine leukemia L1210; qd, day 1,4,7, 480 mg/kg, ip",73 % of control
same,Postinoculation Lifespan (% T/C),murine leukemia L1210; [7],162 % T/C and 142 % T/C
same,Residual Cell Population After Last Treatment,murine leukemia L1210; [7],12 % of control and 7 % of control
same,Postinoculation Lifespan (% T/C),"murine leukemia L1210; qd, day 1-7, 480 mg/kg, po",97 % T/C
same,Residual Cell Population After Last Treatment,"murine leukemia L1210; qd, day 1-7, 480 mg/kg, po",139 % of control
same,Postinoculation Lifespan (% T/C),murine leukemia L1210; [8],113 % T/C and 114 % T/C and 116 % T/C
same,Residual Cell Population After Last Treatment,murine leukemia L1210; [8],32 % of control and 30 % of control and 21 % of control
same,lethal toxicity,"murine leukemia L1210; qid day 1, 480 mg/kg/injection",lethally toxic
same,Postinoculation Lifespan (% T/C),"murine leukemia L1210; qid, day 1, 480 mg/kg, ip",60 % T/C
same,antitumor activity in vivo,murine leukemia L1210,significant antitumor activity in vivo
same,T/C,"murine leukemia L1210; tid day 1, 480 mg/kg/injection",153
same,leukemic cell kill,"murine leukemia L1210; tid day 1, 480 mg/kg/injection",> 99%
same,Postinoculation Lifespan (% T/C),"murine leukemia L1210; tid, day 1,3,5,7, 480 mg/kg, ip",76 % T/C
same,Postinoculation Lifespan (% T/C),"murine leukemia L1210; tid, day 1-7, 480 mg/kg, ip",61 % T/C
same,Postinoculation Lifespan (% T/C),"murine leukemia L1210; tid, day 1, 480 mg/kg, ip",153 % T/C
same,Residual Cell Population After Last Treatment,"murine leukemia L1210; tid, day 1, 480 mg/kg, ip",0.6 % of control
same,Spleen Weight,"Friend leukemia; bid, 288 mg/kg, P < 0.005",150 ± 53 mg
same,tox (in Spleen Weight column),"Friend leukemia; bid, 480 mg/kg",tox
same,Friend leukemia-related splenomegaly diminished,Friend leukemia,significantly diminished
same,Spleen Weight,"Friend leukemia; qd, 288 mg/kg, P < 0.02",599 ± 133 mg
same,Spleen Weight,"Friend leukemia; qd, 480 mg/kg, P < 0.01",216 ± 60 mg
same,water solubility relative to biological activity,[4],limited water solubility
same,maximum dosage which could be delivered as a single bolus (maximum soluble dosage),[4],480 mg/kg
same,antiviral activity,rhino A,inactive
same,antiviral activity,[5],inactive
same,antiviral activity,parainfluenza type 3,inactive
same,cell culture antiviral activity,viruses,devoid themselves of cell culture antiviral activity
same,antiviral activity,influenza A,inactive
"CCOC(=N)c1ncn([C@@H]2O[C@H](CO)[C@@H](O)[C@H]2O)n1 [Compound (5), Ethyl-1-(β-D-ribofuranosyl)[1,2,4]triazole-3-carboximidate]",antiviral activity,visna,inactive
same,in vitro growth inhibition,[1],neither compound demonstrated in vitro growth inhibition
same,cytotoxicity for L1210 cells,[1],neither compound (4) nor compound (5) was cytotoxic
same,antiviral activity,adeno type 2,inactive
same,antiviral activity,semliki forest,inactive
same,in vitro growth inhibition,[2],neither compound demonstrated in vitro growth inhibition
same,in vitro growth inhibition,[3],neither compound demonstrated in vitro growth inhibition
same,MTD,in vivo; qd day 1,1330 mg/kg
same,MTD,in vivo; qd days 1-7,288 mg/kg
same,dosage/schedule dependence of anti-L1210 activity,"murine leukemia L1210; mouse, in vivo",more dosage than schedule dependent
same,lethal toxicity for L1210-inoculated mice,"murine leukemia L1210; mouse, in vivo, 3704 mg/kg",lethally toxic
same,therapeutic efficacy,"murine leukemia L1210; qd day 1, 288 mg/kg",decline of therapeutic efficacy
same,leukemic cell kill,"murine leukemia L1210; qd day 1, 1333 mg/kg, gauged by inoculum response data",98.7%
same,T/C,"murine leukemia L1210; qd day 1, maximum non-lethal dosage, 1333 mg/kg",149
same,lethal toxicity,"murine leukemia L1210; qd days 1-7, compared with qd day 1",lethal toxicity was produced by lower dosages
same,increase in mean life span (T/C),"murine leukemia L1210; qd days 1-7, maximum non-lethal dosage, 288 mg/kg",144
same,Postinoculation Lifespan (% T/C),"murine leukemia L1210; qd, day 1-7, 288 mg/kg, ip",144 % T/C
same,Residual Cell Population After Last Treatment,"murine leukemia L1210; qd, day 1-7, 288 mg/kg, ip",1.7 % of control
same,Postinoculation Lifespan (% T/C),"murine leukemia L1210; qd, day 1-7, 480 mg/kg, ip",134 % T/C
same,Postinoculation Lifespan (% T/C),"murine leukemia L1210; qd, day 1-7, 800 mg/kg, ip",70 % T/C
same,Postinoculation Lifespan (% T/C),"murine leukemia L1210; qd, day 1, 288 mg/kg, ip",114 % T/C
same,Residual Cell Population After Last Treatment,"murine leukemia L1210; qd, day 1, 288 mg/kg, ip",27.0 % of control
same,Postinoculation Lifespan (% T/C),"murine leukemia L1210; qd, day 1, 480 mg/kg, ip",149 % T/C
same,Residual Cell Population After Last Treatment,"murine leukemia L1210; qd, day 1, 480 mg/kg, ip",1.1 % of control
same,Postinoculation Lifespan (% T/C),"murine leukemia L1210; qd, day 1, 800 mg/kg, ip, 800 mg/kg",159 % T/C and 144 % T/C
same,Postinoculation Lifespan (% T/C),"murine leukemia L1210; qd, day 1, 1333 mg/kg, ip",149 % T/C
same,Residual Cell Population After Last Treatment,"murine leukemia L1210; qd, day 1, 1333 mg/kg, ip",1.3 % of control
same,Postinoculation Lifespan (% T/C),"murine leukemia L1210; qd, day 1, 2222 mg/kg, ip",92 % T/C
same,Postinoculation Lifespan (% T/C),"murine leukemia L1210; qd, day 1, 3704 mg/kg, ip",48 % T/C
same,antitumor activity in vivo,murine leukemia L1210,significant antitumor activity in vivo
same,Friend leukemia-related splenomegaly diminished,Friend leukemia,not
same,Spleen Weight,"Friend leukemia; qd, 480 mg/kg",1257 ± 185 mg
same,tox (in Spleen Weight column),"Friend leukemia; qd, 800 mg/kg",tox
same,tox (in Spleen Weight column),"Friend leukemia; qd, 1333 mg/kg",tox
same,maximum dosage which could be delivered as a single bolus (maximum soluble dosage),[4],3704 mg/kg
same,antiviral activity,rhino A,inactive
same,antiviral activity,[5],inactive
same,antiviral activity,parainfluenza type 3,inactive
same,cell culture antiviral activity,viruses,devoid themselves of cell culture antiviral activity
same,antiviral activity,influenza A,inactive
"NC(=O)c1ncn([C@@H]2O[C@H](CO)[C@@H](O)[C@H]2O)n1 [ribavirin, 1-(β-D-ribofuranosyl)-[1,2,4]triazole-3-carboxamide]",inhibition of HIV replication,HIV,inhibits the replication
